Data on 11 molecules can be found in US5610025A, “Inhibition of interfering endogenous enzyme activity in assays of biological fluids” (Actimed Laboratories, Inc., priority 1993, dated 1997).

“And” between values parts separate entries of the source, which are not always exact repeats. Equal values may be shown once. Where a name gives a salt, the structure may show the parent alone.

Type in all cases: biochemical
The target in experiment [1] is T1, catalase (Homo sapiens, UniProt P04040).
T1 sequence (P04040 2-527 limits assumed): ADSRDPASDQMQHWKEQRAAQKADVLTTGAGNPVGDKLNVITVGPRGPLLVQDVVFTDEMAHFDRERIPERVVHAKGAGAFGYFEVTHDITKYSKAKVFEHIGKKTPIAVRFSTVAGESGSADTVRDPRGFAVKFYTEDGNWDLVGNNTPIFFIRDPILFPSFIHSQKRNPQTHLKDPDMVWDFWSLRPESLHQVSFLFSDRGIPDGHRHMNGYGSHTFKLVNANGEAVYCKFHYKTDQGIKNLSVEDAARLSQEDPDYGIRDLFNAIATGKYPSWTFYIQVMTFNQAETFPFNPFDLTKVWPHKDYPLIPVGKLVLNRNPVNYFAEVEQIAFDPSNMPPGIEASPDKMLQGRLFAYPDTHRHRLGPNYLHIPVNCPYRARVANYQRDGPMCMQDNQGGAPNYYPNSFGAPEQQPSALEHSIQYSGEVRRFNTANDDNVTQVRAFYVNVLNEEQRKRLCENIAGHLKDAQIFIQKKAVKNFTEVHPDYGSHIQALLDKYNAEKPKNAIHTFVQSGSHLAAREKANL
The experiment in a line: Catalase inhibitor screening, aqueous hydrogen peroxide samples with added catalase, dye indicator/peroxidase system, absorbance at 514 nm.

Experiment [2] addresses T1, catalase. Nature of the experiment: Catalase inhibitor screening, aqueous cholesterol sample 50 mg/dL with catalase, reporter system Primaquine/MBTH. Conditions: aqueous cholesterol 50 mg/dL with catalase, inhibitor 0.5 mM. Here is the method:
(§1) The inhibitors were added along with the extra catalase, and spectrophotometric measurements at 514 nm were obtained.
(§2) The percent recovery of absorbance is defined as follows: [formula]
(§3) In the following tables, the concentrations of inhibitor substances are expressed as the final concentration in the reaction system after accounting for dilution factors.

Experiment [3] deals with T1, catalase. The experiment in a line: Catalase inhibitor screening, plasma cholesterol sample with catalase, reporter system Primaquine/MBTH. Conditions: inhibitor 0.5 mM. Here is the method: as §1, §2, §3

For the molecule `O=[N+]([O-])[O-].O=[N+]([O-])[O-].[Cu+2]` [Cupric nitrate], the “% Recovery (of absorbance)” value in experiment [1] came out at 85%.

In the case of `CCO` [Ethanol], in experiment [1], the “% Recovery (of absorbance)” value worked out at 6%.

For `Cl.NO` [Hydroxylamine HCl], the “% Recovery (of absorbance)” value in experiment [1] (HCl) was 96% and 95% and 91% and 92%; in experiment [2], 98%; in experiment [3] it was 98%.

Take `NO.NO.O=S(=O)(O)O` [Hydroxylamine sulfate]: the “% Recovery (of absorbance)” value in experiment [1] was 99% and 95% and 90% and 97% and 91%; in experiment [2] it was 96%; in experiment [3], 99%.

As for `CO` [Methanol], in experiment [1], the “% Recovery (of absorbance)” value was found to be 7%.

On to `[Cl][Ni][Cl]` [Nickel (II) chloride], for which, in experiment [1], the “% Recovery (of absorbance)” value is given as 60%.

As for `Oc1cccc(O)c1` [Resorcinol], the “% Recovery (of absorbance)” value in experiment [1] (peroxide with catalase, inhibitor concentration 0.5 mM) worked out at 50%; in experiment [1] (peroxide with catalase, inhibitor concentration 5 mM), 57%; in experiment [1] (peroxide with catalase, inhibitor concentration 40 mM), 79%.

In the case of `[N-]=[N+]=[N-]` [Sodium azide], the “effectiveness as inhibitor of catalase activity (in words)” value in experiment [1] is “most effective inhibitors of catalase activity”.

Take `[F-].[Na+]` [Sodium fluoride]: the “% Recovery (of absorbance)” value in experiment [1] came out at 7%.

Consider `O=CO` [Sodium formate], for which, in experiment [1], the “% Recovery (of absorbance)” value was 8%.

Turning to `O=NO` [Sodium nitrite], the “% Recovery (of absorbance)” value in experiment [1] stood at 30%.
